Seven compounds from ChEMBL document CHEMBL1201862, “PubChem BioAssay data set” (2004) can be followed below.

Each structure is given as a SMILES string.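 Each compound was tested at five concentrations against cells in 96-well plates for 48 hours. GI50 is the concentration that inhibits growth by half.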 The source made the active and inactive calls. Rule as the data show it: active = GI50 up to about 1.1 µM and inactive = higher.

Among the test systems are OVCAR-8; SK-MEL-2; RPMI-8226; CAKI-1; SW-620; SN12C; MDA-MB-435; M14; U-251; NCI-H226; DU-145; 786-0; EKVX; HOP-92; MDA-N; SF-295; UACC-62; NCI-H460; SK-OV-3; NCI/ADR-RES.
What all share (assay): NCI tumour cell line growth inhibition, 48 h

`CC1(C)C=C(/C=C2/N(S(=O)(=O)C(F)(F)F)C(/C=C3/N(S(=O)(=O)C(F)(F)F)C(C)(C#N)CC3(C)C)=CC2(C)C)N=C1/C=C1/CC(C)(C)C(=O)N1` (stereo not given): the GI50 in the experiment with OVCAR-8 was 4.57 µM (inactive); in the experiment on SK-MEL-2, 29.5 µM (inactive); with RPMI-8226 it was 3.93 µM (inactive); in the experiment with CAKI-1, 11.4 µM (inactive); in the experiment on SW-620 it was 6.93 µM (inactive); with SN12C, 22.3 µM (inactive). In addition, the GI50 in the experiment on MDA-MB-435 is 15 µM (inactive); with M14 it was 29.3 µM (inactive); in the experiment with U-251 it was 24.7 µM (inactive); in the experiment on NCI-H226, 22.7 µM (inactive); with DU-145, 33.9 µM (inactive); in the experiment with 786-0 it was 20.7 µM (inactive). Further, the GI50 in the experiment on EKVX was 8.45 µM (inactive); in the experiment with HOP-92, 24.7 µM (inactive); in the experiment with MDA-N it was 21.4 µM (inactive); in the experiment with SF-295, 14.3 µM (inactive); in the experiment with UACC-62 it was 14.4 µM (inactive); in the experiment with NCI-H460, 20.8 µM (inactive). Also, the GI50 with SK-OV-3 is 45.7 µM (inactive); in the experiment on NCI/ADR-RES, 23.3 µM (inactive).

As to `Cc1ccc(C(=O)NC2C(=O)NC(C(C)C)C(=O)N3CCCC3C(=O)N(C)CC(=O)N(C)C(C(C)C)C(=O)OC2C)c2c1Oc1c(c(C(=O)NC3C(=O)NC(C(C)C)C(=O)N4CCCC4C(=O)N(C)CC(=O)N(C)C(C(C)C)C(=O)OC3C)c3nc(-c4ccccc4)c(=O)oc3c1C)N2` (stereo not given), the GI50 in the experiment with OVCAR-8 is < 0.001 µM (active); in the experiment on SK-MEL-2, 0.00112 µM (active); in the experiment with RPMI-8226, 0.00147 µM (active); in the experiment with CAKI-1, 0.00948 µM (active); with SW-620 it was 0.004 µM (active); in the experiment with SN12C it was < 0.001 µM (active). Moreover, the GI50 was 0.00154 µM (active) in the experiment on MDA-MB-435; 0.0231 µM (active) in the experiment on M14; < 0.001 µM (active) with U-251; 0.00163 µM (active) in the experiment on NCI-H226; 0.00422 µM (active) with DU-145; < 0.001 µM (active) in the experiment on 786-0. The GI50 in the experiment with EKVX was 0.00705 µM (active); in the experiment with HOP-92, 0.016 µM (active); with MDA-N it was 0.00348 µM (active); with SF-295 it was < 0.001 µM (active); in the experiment with UACC-62, < 0.001 µM (active); with NCI-H460 it was < 0.001 µM (active). Also, the GI50 in the experiment with SK-OV-3 was 0.00159 µM (active); in the experiment on NCI/ADR-RES it was 0.189 µM (active).

Regarding `CC(C)C[C@H](NC(=O)[C@H](Cc1ccccc1)NC(=O)CCc1ccccc1)B(O)O`, the GI50 in the experiment on OVCAR-8, in the experiment with SK-MEL-2, in the experiment on RPMI-8226, in the experiment with CAKI-1, in the experiment with SW-620 and in the experiment with SN12C was < 0.01 µM (active) throughout. For the same compound, the GI50 with MDA-MB-435, with M14, in the experiment on U-251, in the experiment on NCI-H226, in the experiment on DU-145 and with 786-0 was < 0.01 µM (active) each time. The GI50 with EKVX, with HOP-92, in the experiment with MDA-N, with SF-295, in the experiment on UACC-62 and in the experiment with NCI-H460 was < 0.01 µM (active) each time. Further, the GI50 was < 0.01 µM (active) in the experiment on SK-OV-3 and 0.011 µM (active) with NCI/ADR-RES.

With `O=S(=O)(O)c1ccc2c(/N=N/c3ccccc3)c(O)c(S(=O)(=O)O)cc2c1`, the GI50 is > 100 µM (inactive) in the experiment with OVCAR-8; > 100 µM (inactive) in the experiment on SK-MEL-2; < 0.01 µM (active) with RPMI-8226; > 100 µM (inactive) with CAKI-1; > 100 µM (inactive) with SW-620; > 100 µM (inactive) in the experiment with SN12C. Besides, the GI50 with MDA-MB-435, with M14, with U-251, in the experiment on NCI-H226, with DU-145 and in the experiment on 786-0 was > 100 µM (inactive) each time. Further, the GI50 in the experiment on EKVX is 67 µM (inactive); in the experiment with HOP-92, > 100 µM (inactive); with MDA-N, > 100 µM (inactive); in the experiment with SF-295, > 100 µM (inactive); in the experiment on UACC-62, > 100 µM (inactive); in the experiment on NCI-H460, > 100 µM (inactive). The GI50 in the experiment on SK-OV-3 and with NCI/ADR-RES was > 100 µM (inactive) each time.

As to `NNC(=O)CSc1nc2ccc(I)cc2c(=O)n1Cc1ccccc1`, the GI50 with OVCAR-8 was 48.4 µM (inactive); in the experiment with SK-MEL-2, 20.4 µM (inactive); with RPMI-8226 it was 21.6 µM (inactive); in the experiment on CAKI-1, 15.3 µM (inactive); in the experiment on SW-620, 33 µM (inactive); in the experiment with SN12C, 21.3 µM (inactive). In addition, the GI50 in the experiment with MDA-MB-435 was 35.2 µM (inactive); in the experiment on M14, 18.2 µM (inactive); in the experiment on U-251 it was 20.3 µM (inactive); in the experiment on NCI-H226, 18.8 µM (inactive); with DU-145, 31.2 µM (inactive); with 786-0, 15.6 µM (inactive). The GI50 is 13.1 µM (inactive) in the experiment with EKVX; 30.5 µM (inactive) in the experiment on HOP-92; 31.8 µM (inactive) with MDA-N; 21.9 µM (inactive) with SF-295; 18.6 µM (inactive) in the experiment on UACC-62; 18.8 µM (inactive) with NCI-H460. The figures for the GI50 in the experiment with SK-OV-3 and in the experiment on NCI/ADR-RES were 15.7 µM (inactive) and 40.6 µM (inactive), respectively.

In the case of `Cc1nc(O)nc(N/N=C/c2ccc(Cl)c(Cl)c2)c1C(=O)Nc1ccc(Cl)c(Cl)c1`, the GI50 in the experiment with OVCAR-8 was 4.27 µM (inactive); in the experiment with SK-MEL-2 it was 17 µM (inactive); in the experiment on RPMI-8226, 41.3 µM (inactive); in the experiment with CAKI-1, 17.2 µM (inactive); with SW-620 it was 12.9 µM (inactive); with SN12C, 18.1 µM (inactive). Moreover, the GI50 in the experiment on MDA-MB-435 was 11.1 µM (inactive); with M14, 5.22 µM (inactive); in the experiment with U-251, 6.81 µM (inactive); in the experiment with NCI-H226 it was 28.4 µM (inactive); with DU-145, 12.6 µM (inactive); in the experiment on 786-0, 10.3 µM (inactive). Besides, the GI50 was 30 µM (inactive) in the experiment with EKVX; 17.9 µM (inactive) in the experiment with HOP-92; 15.7 µM (inactive) with MDA-N; 10.6 µM (inactive) in the experiment on SF-295; 17.6 µM (inactive) in the experiment with UACC-62; 18.4 µM (inactive) with NCI-H460. In addition, the GI50 in the experiment on SK-OV-3 was 14 µM (inactive); in the experiment with NCI/ADR-RES, 16.3 µM (inactive).

On to `COC1=C2CC(C)CC(OC)C(OC(=O)CCCN)C(C)/C=C(\C)C(OC(N)=O)C(OC)/C=C\C=C(/C)C(=O)NC(=CC1=O)C2=O` (stereo not given), for which the GI50 in the experiment with OVCAR-8 was 6.97 µM (inactive); in the experiment with SK-MEL-2 it was 12.1 µM (inactive); in the experiment with RPMI-8226, 2.29 µM (inactive); in the experiment on CAKI-1 it was 10.7 µM (inactive); with SW-620, 0.873 µM (active); with SN12C, 5.5 µM (inactive). For the same compound, the GI50 is 2.97 µM (inactive) in the experiment on MDA-MB-435; 4.56 µM (inactive) in the experiment with M14; 18.5 µM (inactive) in the experiment on U-251; 16.3 µM (inactive) in the experiment on NCI-H226; 9.23 µM (inactive) with DU-145; 3.68 µM (inactive) with 786-0. Besides, the GI50 in the experiment on EKVX was 13.2 µM (inactive); in the experiment with HOP-92, 4.23 µM (inactive); in the experiment with MDA-N it was 4.33 µM (inactive); in the experiment on SF-295, 16.9 µM (inactive); with UACC-62, 6 µM (inactive); in the experiment on NCI-H460, 15.5 µM (inactive). For the same compound, the GI50 with SK-OV-3 was 15.5 µM (inactive); with NCI/ADR-RES, 19.9 µM (inactive).
